A short description of series [1]: UV absorption spectral data (wavelength λmax, molar extinction ε, specific extinction E1^1). The conditions noted are these: for Molar extinction ε: in M-1cm-1; for specific extinction (in words, compared with compounds of formula I): comparison with compounds of formula I. The class given is physicochemical. The arrangement: Wavelength λmax: unit not given beside the values.

Series [2] can be described thus: Solubilities at room temperature (20-25° C.) in groundnut oil and groundnut oil/liquid paraffin 1:9. It counts as physicochemical.
The mark [3] stands for this setting: Table 1, second value, in parentheses.

Consider 35 compounds from patent publication US4284621A, “Agents for protection against light” (Bayer Aktiengesellschaft, priority 1978, dated 1981).

Structures can show the parent of a compound that is named as a salt.

“4-methoxy-benzylidene-cyanoacetic acid isodecyl ester [iso-Decyl]”: in series [1] (Table II), the “Specific extinction E1^1” value came out at 790, the “Wavelength λmax (nm)” value came out at 341 nm and the “Molar extinction ε” value was 27,000.
With `COC(=O)C(C#N)=Cc1ccccc1OC` [2-Methoxybenzylidenecyanoacetic acid methyl ester], in series [1] (Table 1), the “Specific extinction E1^1” value was 470, the “Wavelength λmax” value is listed as 354 and the “Molar extinction ε” value is recorded as 10,300. Besides, in series [1] (setting [3]), the “Molar extinction ε (value in parentheses)” value was 12,100, the “Specific extinction E1^1 (value in parentheses)” value came to 560 and the “Wavelength λmax (value in parentheses)” value is on record as 297.
Consider `COC(=O)C(C#N)=Cc1ccc(OC)c(OC)c1` [3,4-Dimethoxybenzylidenecyanoacetic acid methyl ester], for which, in series [1] (Table 1), the “Specific extinction E1^1” value turned out to be 970, the “Wavelength λmax” value was 360 and the “Molar extinction ε” value was 24,000.
In the case of `CCOC(=O)C(=Cc1ccc(OC)c(OC)c1)C(=O)OCC` [3,4-Dimethoxybenzylidenemalonic acid diethyl ester], in series [1] (Table 1), the “Specific extinction E1^1” value worked out at 670, the “Wavelength λmax” value turned out to be 308 and the “Molar extinction ε” value is 20,500.
Turning to `COC(=O)C(C#N)=Cc1cccc(N)c1` [3-Aminobenzylidenecyanic acid methyl ester], in series [1] (Table 1), the “Specific extinction E1^1” value stood at 830, the “Wavelength λmax” value was 310 and the “Molar extinction ε” value is listed as 16,800.
Turning to `COC(=O)C(C#N)=Cc1cccc(O)c1` [3-Hydroxybenzylidenecyanoacetic acid methyl ester], in series [1] (Table 1), the “Specific extinction E1^1” value worked out at 900, the “Wavelength λmax” value was 303 and the “Molar extinction ε” value is 18,200.
Taken in the same sequence, the figures for `CCOC(=O)C(=Cc1cccc(O)c1)C(=O)OCC` [3-Hydroxybenzylidenemalonic acid diethyl ester] were 770, 282 and 20,300.
As to `COC(=O)C(C#N)=Cc1cccc(OC)c1` [3-Methoxybenzylidenecyanoacetic acid methyl ester], in series [1] (Table 1), the “Specific extinction E1^1” value is on record as 710, the “Wavelength λmax” value amounted to 299 and the “Molar extinction ε” value was 15,300.
Consider `COC(=O)C(C#N)=Cc1ccc(Cl)cc1` [4-Chlorobenzylidenecyanoacetic acid methyl ester], for which, in series [1] (Table 1), the “Specific extinction E1^1” value stood at 940, the “Wavelength λmax” value is given as 313 and the “Molar extinction ε” value was 20,900.
`COC(=O)C(C#N)=Cc1ccc(N(C)C)cc1` [4-Dimethylaminobenzylidenecyanoacetic acid methyl ester]: in series [1] (Table 1), the “Specific extinction E1^1” value worked out at 870, the “Wavelength λmax” value is given as 421 and the “Molar extinction ε” value is on record as 19,900.
Take `CN(C)c1ccc(C=C(C(N)=O)C(N)=O)cc1` [4-Dimethylaminobenzylidenemalonic acid diamide]: in series [1] (Table 1), the “Specific extinction E1^1” value came to 870, the “Wavelength λmax” value stood at 369 and the “Molar extinction ε” value is 20,400.
With `COC(=O)C(=Cc1ccc(N(C)C)cc1)C(=O)OC` [4-Dimethylaminobenzylidenemalonic acid dimethyl ester], in series [1] (Table 1), the “Specific extinction E1^1” value is given as 1,200, the “Wavelength λmax” value is on record as 375 and the “Molar extinction ε” value was 31,400.
For `CCOC(=O)C(=Cc1ccc(O)c(OC)c1)C(C)=O` [4-Hydroxy-3-methoxybenzylideneacetoacetic acid ethyl ester] the same measures were 690, 340 and 18,200.
As to `COC(=O)C(C#N)=Cc1ccc(O)c(OC)c1` [4-Hydroxy-3-methoxybenzylidenecyanoacetic acid methyl ester], in series [1] (Table 1), the “Specific extinction E1^1” value worked out at 960, the “Wavelength λmax” value was determined as 366 and the “Molar extinction ε” value was 22,400.
Take `CCOC(=O)C(=Cc1ccc(O)c(OC)c1)C(=O)OCC` [4-Hydroxy-3-methoxybenzylidenemalonic acid diethyl ester]: in series [1] (Table 1), the “Specific extinction E1^1” value turned out to be 630, the “Wavelength λmax” value stood at 332 and the “Molar extinction ε” value is 20,750.
As to `COC(=O)C(C#N)=Cc1ccc(O)cc1` [4-Hydroxybenzylidenecyanoacetic acid methyl ester], in series [1] (Table 1), the “Specific extinction E1^1” value is on record as 1,350, the “Wavelength λmax” value stood at 348 and the “Molar extinction ε” value is reported as 27,300.
For `C=C(C)C(=O)Oc1ccc(C=C(C#N)C(=O)OC)cc1` [4-Methacryloxybenzylidenecyanoacetic acid methyl ester] the same measures were 1,230, 312 and 23,000.
`CCOC(=O)C(=Cc1ccc(OC)cc1)C(C)=O` [4-Methoxybenzylideneacetoacetic acid ethyl ester]: in series [1] (Table 1), the “Specific extinction E1^1” value was found to be 770, the “Wavelength λmax” value is 316 and the “Molar extinction ε” value is reported as 19,000.
Taken in the same sequence, the figures for `COc1ccc(C=C(C#N)C(N)=O)cc1` [4-Methoxybenzylidenecyanoacetic acid amide] were 1,200, 332 and 24,300.
As for `COc1ccc(C=C(C#N)C(=O)N(CC(C)C)CC(C)C)cc1` [4-Methoxybenzylidenecyanoacetic acid diisobutylamide], in series [1] (Table 1), the “Specific extinction E1^1” value is reported as 510, the “Wavelength λmax” value is 325 and the “Molar extinction ε” value is 15,900.
For `COC(=O)C(C#N)=Cc1ccc(OC)cc1` [4-Methoxybenzylidenecyanoacetic acid methyl ester] the same measures were 1,350, 340 and 29,300.
Taken in the same sequence, the figures for `COc1ccc(C=C(C(=O)OCC(C)C)C(=O)OCC(C)C)cc1` [4-Methoxybenzylidenemalonic acid diisobutyl ester] were 740, 312 and 24,800.
`COC(=O)C(C#N)=Cc1ccc(C)cc1` [4-Methylbenzylidenecyanoacetic acid methyl ester]: in series [1] (Table 1), the “Specific extinction E1^1” value is on record as 1,230, the “Wavelength λmax” value was determined as 317 and the “Molar extinction ε” value is listed as 25,000.
In the case of `COc1ccc(C(=O)c2cc(S(=O)(=O)O)c(OC)cc2O)c(O)c1` [(1), sodium salt of 2,2'-dihydroxy-4,4'-dimethoxybenzophenone-5-sulphonic acid], in series [1] (Table II), the “Specific extinction E1^1” value came out at 160; the “Wavelength λmax (nm)” value amounted to 330 nm; the “Molar extinction ε” value is 5,920; the “specific extinction (in words, compared with compounds of formula I)” value is “significantly lower specific extinction”.
On to `O=C(c1ccc(O)cc1O)c1ccc(O)cc1O` [(2), 2,2',4,4'-tetrahydroxybenzophenone], for which, in series [1] (Table II), the “Specific extinction E1^1” value is listed as 645; the “Wavelength λmax (nm)” value was 351 nm; the “Molar extinction ε” value is 15,900; the “specific extinction (in words, compared with compounds of formula I)” value is given as “significantly lower specific extinction”. Besides, the “Solubility at room temperature in groundnut oil (%)” value (from here on “Solubility … in groundnut oil (%)”) in series [2] is 0.8%.
Take `COc1ccc(C(=O)CC(=O)c2ccc(OC)cc2)cc1` [(3), dianisoylmethane]: the “Solubility … in groundnut oil (%)” value in series [2] is recorded as 1%.
Consider `COC(=O)C(C#N)=Cc1ccco1` [Furfurylidenecyanoacetic acid methyl ester], for which, in series [1] (Table 1), the “Specific extinction E1^1” value is 1,530, the “Wavelength λmax” value turned out to be 337 and the “Molar extinction ε” value is listed as 27,000.
Turning to `CCCCOC(=O)C(C#N)=Cc1ccc(OC)cc1` [n-Butyl], in series [1] (Table II), the “Specific extinction E1^1” value is on record as 1,090, the “Wavelength λmax (nm)” value is listed as 342 nm and the “Molar extinction ε” value is 28,300. Moreover, in series [2], the “Solubility … in groundnut oil (%)” value is recorded as 17% and the “Solubility at room temperature in groundnut oil/liquid paraffin 1:9 (%)” value is on record as 3%.
For `CCCCCCCCCCOC(=O)C(C#N)=Cc1ccc(OC)cc1` [n-Decyl, 4-methoxy-benzylidene-cyanoacetic acid n-decyl ester], in series [1] (Table II), the “Specific extinction E1^1” value is listed as 810, the “Wavelength λmax (nm)” value came out at 341 nm and the “Molar extinction ε” value is 27,700.
For `CCCCCCCCCCCCOC(=O)C(C#N)=Cc1ccc(OC)cc1` [n-Dodecyl], in series [1] (Table II), the “Specific extinction E1^1” value was 770, the “Wavelength λmax (nm)” value is on record as 342 nm and the “Molar extinction ε” value is 28,450. For the same compound, in series [2], the “Solubility … in groundnut oil (%)” value was determined as 14%.
Consider `CCCCCCCOC(=O)C(C#N)=Cc1ccc(OC)cc1` [n-Heptyl], for which, in series [1] (Table II), the “Specific extinction E1^1” value came out at 940, the “Wavelength λmax (nm)” value stood at 341 nm and the “Molar extinction ε” value was 28,300. For the same compound, in series [2], the “Solubility … in groundnut oil (%)” value worked out at 33% and the “Solubility at room temperature in groundnut oil/liquid paraffin 1:9 (%)” value was 7%.
Take `CCCCCCCCCOC(=O)C(C#N)=Cc1ccc(OC)cc1` [n-Nonyl]: in series [1] (Table II), the “Specific extinction E1^1” value turned out to be 910, the “Wavelength λmax (nm)” value was 341 nm and the “Molar extinction ε” value is listed as 30,000. Further, in series [2], the “Solubility … in groundnut oil (%)” value was found to be 55% and the “Solubility at room temperature in groundnut oil/liquid paraffin 1:9 (%)” value is given as 10%.
For `CCCCCCCCOC(=O)C(C#N)=Cc1ccc(OC)cc1` [n-Octyl, 4-methoxy-benzylidene-cyanoacetic acid n-octyl ester], in series [1] (Table II), the “Specific extinction E1^1” value is recorded as 970, the “Wavelength λmax (nm)” value was 341 nm and the “Molar extinction ε” value was 30,500. Further, the “Solubility at room temperature in groundnut oil/liquid paraffin 1:9 (%)” value in series [2] is recorded as 90%.
For the compound `COC(=O)C(C#N)=C(c1ccccc1)c1ccccc1` [α-Cyano-β,β-diphenyl-acrylic acid methyl], in series [1] (Table 1), the “Specific extinction E1^1” value is 520 and the “Molar extinction ε” value is 14,000.
On to `COC(=O)C(C#N)=C(C)c1ccc(OC)cc1` [α-Cyano-β-methyl-β-(4-methoxyphenyl)-acrylic acid methyl ester], for which, in series [1] (Table 1), the “Specific extinction E1^1” value is on record as 460, the “Wavelength λmax” value is 318 and the “Molar extinction ε” value is recorded as 10,900.
